Test results from patent publication US20240148821A1, “PHARMACEUTICAL USE OF CYCLIC PEPTIDE COMPOUND” (CHUGAI SEIYAKU KABUSHIKI KAISHA, priority 2021, published 2024).
Numbered stars: 1 amine (or outer) side, 2 acyl side, 3 side chain; on linkers, the order of the positions; unused ones are H or OH. Bridge positions count the residues as written; N and C are the ends. Square brackets hold non-standard residues; d marks the D form. Peptide text beside a SMILES is read from it. * marks the point of attachment. hPhe(3-Cl-4-CF3) = N[C@@H](CCc1ccc(C(F)(F)F)c(Cl)c1)C(=O)O; NMePhe(4-CF3) = CN[C@@H](Cc1ccc(C(F)(F)F)cc1)C(=O)O; NEtPhe(4-Me) = CCN[C@@H](Cc1ccc(C)cc1)C(=O)O; NMePhe(4-Cl) = CN[C@@H](Cc1ccc(Cl)cc1)C(=O)O; NMedβ3hAla = C[C@H](CC(=O)[*:2])N(C)[*:1]; NMeGly(cPent) = CN[C@H](C(=O)O)C1CCCC1; NMeCha = CN[C@@H](CC1CCCCC1)C(=O)O; NMeF = CN[C@@H](Cc1ccccc1)C(=O)O; NMeD = CN[C@@H](CC(=O)O)C(=O)O; NMeL = CN[C@@H](CC(C)C)C(=O)O; NMeNle = CCCC[C@H](NC)C(=O)O; NMeV = CN[C@H](C(=O)O)C(C)C; d(β3hA) = C[C@@H](N)CC(=O)O; Pip = O=C(O)[C@@H]1CCCCN1; NMeA = CN[C@@H](C)C(=O)O; Piperidide = C1CCN(*)CC1; dNMeA = CN[C@H](C)C(=O)O; Ac5c = NC1(C(=O)O)CCCC1; Aze = O=C(O)[C@@H]1CCN1; Sar = CNCC(=O)O

Biological target: protein-protein interaction between Kras and SOS1 (biotin-tagged human Kras loaded with GDP, His-tagged human SOS1) (Homo sapiens (Human), UniProt P01116, G12D)
Assay: Protein-protein interaction inhibition between Kras and SOS1 (KrasG12D-SOS PPI) using AlphaScreen;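 note: kras produced in E. coli, Ni-coupled donor beads and streptavidin acceptor beads, excitation 680 nm with emission detected at 520–620 nm via singlet oxygen transfer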
Type: biochemical
Conditions: AlphaScreen; biotin-tagged human Kras loaded with GDP, His-tagged human SOS1; read-out: KRAS G12D-SOS PPI IC50

Row | Structure (SMILES) | IC50 [nM]
1 | CC[C@H](C)[C@@H]1NC(=O)[C@H](CC(C)C)N(C)C(=O)C[C@@H](C)NC(=O)[C@H](C2CCCC2)N(C)C(=O)C2(CCCC2)NC(=O)[C@@H]2CCCN2C(=O)[C@H](CCc2ccc(C(F)(F)F)c(Cl)c2)NC(=O)[C@@H](C)N(C)C(=O)[C@H](Cc2ccc(C(F)(F)F)cc2)N(C)C(=O)[C@@H]2CCN2C(=O)CN(C)C1=O [Compound 1468] (cyclo([Ac5c][NMeGly(cPent)][d(β3hA)][NMeL]I[Sar][Aze][NMePhe(4-CF3)][dNMeA][hPhe(3-Cl-4-CF3)]P)) | 90
2 | CC[C@H](C)[C@@H]1NC(=O)[C@H](CC(C)C)N(C)C(=O)C[C@@H](C)N(C)C(=O)[C@H](C(C)C)N(C)C(=O)C2(CCCC2)NC(=O)[C@@H]2CCCN2C(=O)[C@H](CCc2ccc(C(F)(F)F)c(Cl)c2)NC(=O)CN(C)C(=O)[C@H](CC2CCCCC2)N(C)C(=O)[C@@H]2CCN2C(=O)CN(C)C1=O [Compound 1648] (cyclo([Ac5c][NMeV][NMedβ3hAla][NMeL]I[Sar][Aze][NMeCha][Sar][hPhe(3-Cl-4-CF3)]P)) | 10
3 | CC[C@H](C)[C@@H]1NC(=O)[C@H](CC(C)C)N(C)C(=O)C[C@@H](C)NC(=O)[C@H](C(C)C)N(C)C(=O)C2(CCCC2)NC(=O)[C@@H]2CCCN2C(=O)[C@H](CCc2ccc(C(F)(F)F)c(Cl)c2)NC(=O)CN(C)C(=O)[C@H](CC2CCCCC2)N(C)C(=O)[C@@H]2CCN2C(=O)[C@@H]2CCCCN2C1=O [Compound 416] (cyclo([Ac5c][NMeV][d(β3hA)][NMeL]I[Pip][Aze][NMeCha][Sar][hPhe(3-Cl-4-CF3)]P)) | 54
4 | CCCC[C@H]1C(=O)N(C)CC(=O)N[C@@H](CCc2ccc(C(F)(F)F)c(Cl)c2)C(=O)N2CCC[C@H]2C(=O)NC2(CCCC2)C(=O)N(C)[C@@H](C(C)C)C(=O)N(C)[C@H](C(=O)N2CCCCC2)CC(=O)N(C)[C@@H](CC(C)C)C(=O)N[C@@H]([C@@H](C)CC)C(=O)N(C)[C@@H](C)C(=O)N2CC[C@H]2C(=O)N1C [Compound 1712] ([NMeL]I[NMeA][Aze][NMeNle][Sar][hPhe(3-Cl-4-CF3)]P[Ac5c][NMeV][NMeD]-Piperidide; lactam N-11) | 9.8
5 | CC[C@H](C)[C@@H]1NC(=O)[C@H](CC(C)C)N(C)C(=O)C[C@@H](C(=O)N2CCCCC2)N(C)C(=O)[C@H](C(C)C)N(C)C(=O)C2(CCCC2)NC(=O)[C@@H]2CCCN2C(=O)[C@H](CCc2ccc(C(F)(F)F)c(Cl)c2)NC(=O)CN(C)C(=O)[C@H](C(C)C)N(C)C(=O)[C@@H]2CCN2C(=O)[C@H](C)N(C)C1=O [Compound 1737] ([NMeL]I[NMeA][Aze][NMeV][Sar][hPhe(3-Cl-4-CF3)]P[Ac5c][NMeV][NMeD]-Piperidide; lactam N-11) | 8.3
6 | CC[C@H](C)[C@@H]1NC(=O)[C@H](C)N(C)C(=O)C[C@@H](C(=O)N2CCCCC2)N(C)C(=O)[C@H](C(C)C)N(C)C(=O)C2(CCCC2)NC(=O)[C@@H]2CCCN2C(=O)[C@H](CCc2ccc(C(F)(F)F)c(Cl)c2)NC(=O)[C@H]2CCCN2C(=O)[C@H](Cc2ccccc2)N(C)C(=O)[C@@H]2CCCN2C(=O)CN(C)C1=O [Compound 1839] ([NMeA]I[Sar]P[NMeF][dP][hPhe(3-Cl-4-CF3)]P[Ac5c][NMeV][NMeD]-Piperidide; lactam N-11) | 55
7 | CC[C@H](C)[C@@H]1NC(=O)[C@H](CC(C)C)N(C)C(=O)C[C@@H](C)N(C)C(=O)[C@H](C2CCCC2)N(C)C(=O)C2(CCCC2)NC(=O)[C@@H]2CCCN2C(=O)[C@H](CCc2ccc(C(F)(F)F)c(Cl)c2)NC(=O)CN(C)C(=O)[C@H](CC2CCCCC2)N(C)C(=O)[C@@H]2CCN2C(=O)[C@H](C)N(C)C1=O [Compound 1717] (cyclo([Ac5c][NMeGly(cPent)][NMedβ3hAla][NMeL]I[NMeA][Aze][NMeCha][Sar][hPhe(3-Cl-4-CF3)]P)) | 3.3
8 | CC[C@H](C)[C@@H]1NC(=O)[C@H](CC(C)C)N(C)C(=O)C[C@@H](C(=O)N2CCCCC2)N(C)C(=O)[C@H](C(C)C)N(C)C(=O)C2(CCCC2)NC(=O)[C@@H]2CCCN2C(=O)[C@H](CCc2ccc(C(F)(F)F)c(Cl)c2)NC(=O)CN(C)C(=O)[C@H](Cc2ccc(Cl)cc2)N(C)C(=O)[C@@H]2CCN2C(=O)[C@H](C)N(C)C1=O [Compound 680] ([NMeL]I[NMeA][Aze][NMePhe(4-Cl)][Sar][hPhe(3-Cl-4-CF3)]P[Ac5c][NMeV][NMeD]-Piperidide; lactam N-11) | 9.9
9 | CC[C@H](C)[C@@H]1NC(=O)[C@H](CC(C)C)N(C)C(=O)C[C@@H](C)N(C)C(=O)[C@H](C2CCCC2)N(C)C(=O)C2(CCCC2)NC(=O)[C@@H]2CCCN2C(=O)[C@H](CCc2ccc(C(F)(F)F)c(Cl)c2)NC(=O)CN(C)C(=O)[C@H](Cc2ccc(C)cc2)N(CC)C(=O)[C@@H]2CCN2C(=O)[C@H](C)N(C)C1=O [Compound 494] (cyclo([Ac5c][NMeGly(cPent)][NMedβ3hAla][NMeL]I[NMeA][Aze][NEtPhe(4-Me)][Sar][hPhe(3-Cl-4-CF3)]P)) | 8.6
